Reference: publication PMC4595045 (Journal of medicinal chemistry, 2013)

Experiments:
CaV1.3 LTCCs [1] = target: T1, CaV1.3 LTCCs (Rattus norvegicus, UniProt P27732); settings: more potent than 6; ref previous study; cited from earlier work
CaV1.3 LTCCs [2] = target: T1, CaV1.3 LTCCs; assay: FLIPR Fluo-8 calcium influx assay, HEK293 cells stably expressing CaV1.3; assay type: cell-based; settings: for Selectivity, ratio of the IC50 values (CaV1.2/CaV1.3): CaV1.3 over CaV1.2; for binding to CaV1.3 LTCCs (in words): bulky bicyclic ring analogues; for binding affinity for CaV1.3 LTCCs (in words): even at 100 µM
CaV1.2 LTCCs = CaV1.2 LTCCs (Oryctolagus cuniculus, UniProt P15381); assay: FLIPR Fluo-8 calcium influx assay, HEK293 cells stably expressing CaV1.2; assay type: cell-based, rabbit; settings: for binding to CaV1.2 LTCCs (in words): bulky bicyclic ring analogues; for binding affinity for CaV1.2 LTCCs (in words): even at 100 µM
CaV1.2 LTCCs, sequence (P15381 whole entry): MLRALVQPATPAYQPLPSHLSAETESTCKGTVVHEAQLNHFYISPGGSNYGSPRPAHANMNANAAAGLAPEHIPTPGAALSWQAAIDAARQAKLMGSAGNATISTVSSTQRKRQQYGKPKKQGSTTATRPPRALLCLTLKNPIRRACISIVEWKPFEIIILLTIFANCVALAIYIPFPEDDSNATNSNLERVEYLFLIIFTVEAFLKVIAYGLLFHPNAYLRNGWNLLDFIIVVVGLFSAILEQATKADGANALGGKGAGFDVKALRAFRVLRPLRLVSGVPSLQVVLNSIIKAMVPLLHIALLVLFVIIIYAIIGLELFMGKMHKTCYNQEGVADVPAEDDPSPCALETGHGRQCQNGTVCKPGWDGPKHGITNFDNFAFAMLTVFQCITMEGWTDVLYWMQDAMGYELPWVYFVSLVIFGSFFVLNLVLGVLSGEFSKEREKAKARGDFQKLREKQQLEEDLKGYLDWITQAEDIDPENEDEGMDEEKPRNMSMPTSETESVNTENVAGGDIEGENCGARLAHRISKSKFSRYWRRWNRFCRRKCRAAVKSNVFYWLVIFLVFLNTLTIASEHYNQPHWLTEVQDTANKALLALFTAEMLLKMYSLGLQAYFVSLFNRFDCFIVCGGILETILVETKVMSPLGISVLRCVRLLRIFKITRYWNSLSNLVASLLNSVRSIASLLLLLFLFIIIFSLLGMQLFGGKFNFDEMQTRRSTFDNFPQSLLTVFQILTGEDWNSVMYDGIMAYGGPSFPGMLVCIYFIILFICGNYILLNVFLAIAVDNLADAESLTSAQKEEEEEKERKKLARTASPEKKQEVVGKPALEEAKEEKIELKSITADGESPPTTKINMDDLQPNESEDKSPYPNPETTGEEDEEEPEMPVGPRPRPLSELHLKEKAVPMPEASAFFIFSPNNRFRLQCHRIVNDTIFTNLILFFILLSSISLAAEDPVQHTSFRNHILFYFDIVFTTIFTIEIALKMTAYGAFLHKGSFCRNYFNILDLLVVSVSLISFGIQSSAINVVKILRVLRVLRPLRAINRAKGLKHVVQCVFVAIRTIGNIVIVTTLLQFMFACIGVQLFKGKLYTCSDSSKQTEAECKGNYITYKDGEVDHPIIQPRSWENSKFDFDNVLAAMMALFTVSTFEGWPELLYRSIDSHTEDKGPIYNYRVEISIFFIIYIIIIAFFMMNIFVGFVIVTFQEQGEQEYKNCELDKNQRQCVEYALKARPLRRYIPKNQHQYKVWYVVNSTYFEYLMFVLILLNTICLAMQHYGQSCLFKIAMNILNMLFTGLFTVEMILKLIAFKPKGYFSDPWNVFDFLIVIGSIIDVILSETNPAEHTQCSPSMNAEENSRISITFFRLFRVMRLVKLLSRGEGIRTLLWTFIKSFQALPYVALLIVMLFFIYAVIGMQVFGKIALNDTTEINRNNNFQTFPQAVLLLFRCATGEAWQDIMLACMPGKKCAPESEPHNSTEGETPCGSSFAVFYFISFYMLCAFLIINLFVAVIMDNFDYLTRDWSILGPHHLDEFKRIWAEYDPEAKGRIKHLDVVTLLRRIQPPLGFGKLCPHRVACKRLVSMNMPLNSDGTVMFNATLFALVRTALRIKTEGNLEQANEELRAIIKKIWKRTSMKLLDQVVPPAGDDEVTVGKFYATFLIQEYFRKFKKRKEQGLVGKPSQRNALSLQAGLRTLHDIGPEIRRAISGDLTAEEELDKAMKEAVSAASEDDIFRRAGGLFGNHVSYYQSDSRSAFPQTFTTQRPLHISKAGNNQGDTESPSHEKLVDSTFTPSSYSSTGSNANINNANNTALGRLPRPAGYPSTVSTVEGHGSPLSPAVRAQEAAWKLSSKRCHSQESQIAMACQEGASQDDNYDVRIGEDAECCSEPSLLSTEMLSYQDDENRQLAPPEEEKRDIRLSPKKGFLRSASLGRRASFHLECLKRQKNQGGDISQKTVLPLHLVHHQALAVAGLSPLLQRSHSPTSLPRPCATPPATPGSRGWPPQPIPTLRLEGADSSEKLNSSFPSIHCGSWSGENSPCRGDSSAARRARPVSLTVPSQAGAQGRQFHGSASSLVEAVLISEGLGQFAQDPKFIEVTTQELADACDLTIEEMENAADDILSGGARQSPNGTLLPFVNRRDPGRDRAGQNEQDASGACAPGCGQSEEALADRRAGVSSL
CaV1.2 LTCCs, sequence (P54287 whole entry partner): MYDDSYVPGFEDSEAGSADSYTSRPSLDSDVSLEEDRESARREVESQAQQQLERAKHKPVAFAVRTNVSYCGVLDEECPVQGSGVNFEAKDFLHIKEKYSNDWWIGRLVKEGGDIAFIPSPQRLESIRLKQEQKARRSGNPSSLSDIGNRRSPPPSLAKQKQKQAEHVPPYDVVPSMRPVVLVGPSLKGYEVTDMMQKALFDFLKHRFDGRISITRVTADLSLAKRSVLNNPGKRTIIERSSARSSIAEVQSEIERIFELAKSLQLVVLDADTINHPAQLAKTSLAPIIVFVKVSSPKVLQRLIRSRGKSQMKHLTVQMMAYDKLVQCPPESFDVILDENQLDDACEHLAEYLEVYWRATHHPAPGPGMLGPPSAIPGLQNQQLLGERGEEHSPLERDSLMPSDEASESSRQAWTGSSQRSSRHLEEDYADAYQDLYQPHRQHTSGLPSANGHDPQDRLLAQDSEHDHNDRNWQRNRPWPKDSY
CaV1.2 LTCCs, sequence (P54290 25-944 partner): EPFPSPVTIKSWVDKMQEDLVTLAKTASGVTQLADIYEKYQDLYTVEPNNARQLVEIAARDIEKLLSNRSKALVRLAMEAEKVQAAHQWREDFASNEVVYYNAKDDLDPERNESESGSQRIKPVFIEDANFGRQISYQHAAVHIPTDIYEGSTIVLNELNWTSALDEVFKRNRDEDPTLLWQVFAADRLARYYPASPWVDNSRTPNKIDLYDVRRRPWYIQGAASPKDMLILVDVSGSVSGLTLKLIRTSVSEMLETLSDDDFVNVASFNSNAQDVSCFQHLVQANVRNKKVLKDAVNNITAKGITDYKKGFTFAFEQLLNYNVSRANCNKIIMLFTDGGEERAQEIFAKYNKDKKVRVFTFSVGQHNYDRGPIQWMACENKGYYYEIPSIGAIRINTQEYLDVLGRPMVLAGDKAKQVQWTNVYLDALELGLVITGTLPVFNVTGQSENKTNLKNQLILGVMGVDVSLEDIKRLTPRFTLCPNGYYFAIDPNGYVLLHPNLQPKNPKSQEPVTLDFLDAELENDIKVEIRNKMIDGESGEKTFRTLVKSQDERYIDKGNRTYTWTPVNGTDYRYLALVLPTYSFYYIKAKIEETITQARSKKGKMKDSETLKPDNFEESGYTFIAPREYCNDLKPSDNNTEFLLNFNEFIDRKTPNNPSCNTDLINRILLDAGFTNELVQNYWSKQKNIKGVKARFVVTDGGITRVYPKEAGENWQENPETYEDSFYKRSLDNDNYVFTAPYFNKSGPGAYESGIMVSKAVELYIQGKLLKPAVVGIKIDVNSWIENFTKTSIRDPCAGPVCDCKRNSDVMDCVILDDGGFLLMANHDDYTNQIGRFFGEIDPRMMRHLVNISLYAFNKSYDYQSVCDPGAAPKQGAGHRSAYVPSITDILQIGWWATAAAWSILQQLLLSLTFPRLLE
CaV1.2 LTCCs, sequence (P54290 945-1091 partner): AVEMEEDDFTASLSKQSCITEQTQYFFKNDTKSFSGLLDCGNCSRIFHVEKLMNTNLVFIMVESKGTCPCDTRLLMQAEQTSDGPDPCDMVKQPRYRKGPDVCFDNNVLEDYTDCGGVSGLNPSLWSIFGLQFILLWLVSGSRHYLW

SMILES: O=C1CC(=O)N(C2CC3CCC2C3)C(=O)N1CCc1ccc(Cl)cc1 (mixture of isomers) [Compound 7, N-(4-chlorophenethyl)-N′-(±)-endo-norbornylpyrimidine-2,4,6-(1H,3H,5H)-trione]
- potency toward CaV1.3 LTCC relative to 6 (CaV1.3 LTCCs [1]): 3 fold

SMILES: C[C@@H](C1CCCCC1)N1C(=O)CC(=O)N(CCc2ccc(Cl)cc2)C1=O [Compound 44, (S)-1-(4-Chlorophenethyl)-3-(1-cyclohexylethyl)pyrimidine-2,4,6(1H,3H,5H)-trione]
- Selectivity, ratio of the IC50 values (CaV1.2/CaV1.3) (CaV1.3 LTCCs [2]): >12

SMILES: C[C@H](C1CCCCC1)N1C(=O)CC(=O)N(CCc2ccc(Cl)cc2)C1=O [Compound 46, (R)-1-(4-Chlorophenethyl)-3-(1-cyclohexylethyl)pyrimidine-2,4,6(1H,3H,5H)-trione]
- Selectivity, ratio of the IC50 values (CaV1.2/CaV1.3) (CaV1.3 LTCCs [2]): >12

SMILES: O=C1CC(=O)N([C@H]2C[C@H]3CC[C@@H]2C3)C(=O)N1CCc1cccc(Cl)c1 [Compound 49, 1-((1R,2S,4S)-Bicyclo[2.2.1]heptan-2-yl)-3-(3-chlorophenethyl)pyrimidine-2,4,6(1H,3H,5H)-trione]
- Selectivity, ratio of the IC50 values (CaV1.2/CaV1.3) (CaV1.3 LTCCs [2]): >29

SMILES: CC1(C)[C@@H]2CC[C@@]1(C)[C@@H](N1C(=O)CC(=O)N(CCc3cccc(Cl)c3)C1=O)C2 [Compound 53]
- binding to CaV1.2 LTCCs (in words) (CaV1.2 LTCCs): almost no binding
- binding to CaV1.3 LTCCs (in words) (CaV1.3 LTCCs [2]): almost no binding

SMILES: CC1(C)[C@@H]2CC[C@@]1(C)[C@@H](N1C(=O)CC(=O)N(CCc3ccc(Cl)cc3)C1=O)C2 [Compound 54]
- binding to CaV1.2 LTCCs (in words) (CaV1.2 LTCCs): almost no binding
- binding to CaV1.3 LTCCs (in words) (CaV1.3 LTCCs [2]): almost no binding

SMILES: CC1(C)[C@@H]2CC[C@H](CN3C(=O)CC(=O)N(CCc4cccc(Cl)c4)C3=O)[C@H]1C2 [Compound 55]
- binding to CaV1.2 LTCCs (in words) (CaV1.2 LTCCs): almost no binding
- binding to CaV1.3 LTCCs (in words) (CaV1.3 LTCCs [2]): almost no binding

SMILES: CC1(C)[C@@H]2CC[C@H](CN3C(=O)CC(=O)N(CCc4ccc(Cl)cc4)C3=O)[C@H]1C2 [Compound 56]
- binding to CaV1.2 LTCCs (in words) (CaV1.2 LTCCs): almost no binding
- binding to CaV1.3 LTCCs (in words) (CaV1.3 LTCCs [2]): almost no binding

SMILES: O=C1CC(=O)N([C@H]2CCNC2)C(=O)N1CCc1cccc(Cl)c1 [Compound 65]
- binding affinity for CaV1.2 LTCCs (in words) (CaV1.2 LTCCs): no binding affinity
- binding affinity for CaV1.3 LTCCs (in words) (CaV1.3 LTCCs [2]): no binding affinity

SMILES: O=C(O)[C@H]1CC[C@@H](N2C(=O)CC(=O)N(CCc3cccc(Cl)c3)C2=O)C1 [Compound 67]
- binding affinity for CaV1.2 LTCCs (in words) (CaV1.2 LTCCs): no binding affinity
- binding affinity for CaV1.3 LTCCs (in words) (CaV1.3 LTCCs [2]): no binding affinity

SMILES: O=C1CC(=O)N([C@H]2CCC[C@@H]2O)C(=O)N1CCc1cccc(Cl)c1 [Compound 69]
- binding affinity for CaV1.2 LTCCs (in words) (CaV1.2 LTCCs): no binding affinity
- binding affinity for CaV1.3 LTCCs (in words) (CaV1.3 LTCCs [2]): no binding affinity
